The test system of this experiment is rat glomerular nephritis. The experiment can be described thus: Action on rat glomerular nephritis (nephrotoxic serum-induced nephritis; urinary protein excretion). The class given is in vivo. The following applies: male WKY rats, NTS-induced nephritis; 30 mg/kg/10 ml orally twice a day for 8 days; 24 h urine collected after 7 days. Here is the method: (Action on rat glomerular nephritis)
Rabbits were immunized several times with a renal glomerular basement membrane fraction obtained from WKY strain rats and an adjuvant. Thereafter, blood was collected to obtain a nephrotoxic serum (NTS). This NTS was diluted by 50 times with physiological saline, and the diluted NTS was once administered intravenously to male WKY rats of 8 weeks old in a dose of 2.5 ml per 1 kg of body weight to induce nephritis. In normal group of rats, the same volume of physiological saline was intravenously administered.
In the experiment, one group consisted of 6 rats, and each compound to be tested was suspended in water with small amount of Tween 80 (trade name, produced by Nacalai Tesque Co.), and was orally administered to the test group of rats at a dose of 30 mg/kg/10 ml twice a day for 8 days. In normal group and control group of rats, the same volume of water was orally administered instead of the test compound. After 7 days, the rats were placed in metabolic cages and urine was collected for 24 hours. Concentrations of protein in urine were measured by the sulfosalicylic acid method to determine amounts of protein excreted in the urine (mg/day). The inhibition rate of excretion of protein were calculated by the following equation. [formula]
Turning to `C=CS(=O)(=O)NCC1Cc2ccc(-c3ccc(=O)[nH]n3)cc2C1` (stereo not drawn) [Example 4], the “Inhibition rate (of excretion of protein in urine)” value (“Inhibition rate” below) is given as 61.5%.
As for `C=CS(=O)(=O)NCCCCC1Cc2ccc(-c3ccc(=O)[nH]n3)cc2C1` (stereo not drawn) [Example 12], the figure is 67.5%; as for `C=CS(=O)(=O)NCCCC1Cc2ccc(-c3ccc(=O)[nH]n3)cc2C1` (stereo not drawn) [Example 19], 91.8%.
With `CCS(=O)(=O)NCCC1Cc2ccc(-c3ccc(=O)[nH]n3)cc2C1` (stereo not drawn) [Example 6], the “Inhibition rate” value came out at 65.1%.
Regarding `CCCS(=O)(=O)NCCC1Cc2ccc(-c3ccc(=O)[nH]n3)cc2C1` (stereo not drawn) [Example 7], the “Inhibition rate” value is listed as 77.2%.
As for `C=CS(=O)(=O)NCCC1Cc2ccc(-c3ccc(=O)[nH]n3)cc2C1` (stereo not drawn) [Example 8], the figure is 71.6%.

Values taken from patent US5686452A, “Indane derivative and processes for preparing the same” (Tanabe Seiyaku Co., Ltd., priority 1994, dated 1997).
